Among the data in patent publication US11597702B2, “Substituted pyrazoles FFA4/GPR120 receptor agonists” (AXXAM S.P.A., priority 2018, dated 2023) are EC50 values, retold here.

The target in the experiment is T1, GPR120 (Homo sapiens, UniProt Q5NUL3).
T1 construct: expressed in transfected cells; host or cells: CHO mitoPhotinaGPR120 cells
T1 sequence (Q5NUL3 1-361): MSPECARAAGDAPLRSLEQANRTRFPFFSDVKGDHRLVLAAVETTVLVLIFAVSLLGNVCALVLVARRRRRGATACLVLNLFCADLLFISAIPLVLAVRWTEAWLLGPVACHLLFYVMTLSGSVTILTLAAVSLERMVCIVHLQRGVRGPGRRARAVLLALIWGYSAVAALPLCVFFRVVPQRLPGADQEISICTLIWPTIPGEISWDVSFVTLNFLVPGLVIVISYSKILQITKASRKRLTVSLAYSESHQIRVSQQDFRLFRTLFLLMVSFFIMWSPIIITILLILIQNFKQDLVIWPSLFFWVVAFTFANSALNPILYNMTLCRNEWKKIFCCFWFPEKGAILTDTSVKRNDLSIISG
Nature of the experiment: GPR120 agonism in CHO mitoPhotinaGPR120 cell based assay with fluorescent (Fluo-8 calcium, FLIPRTetra) readout, Agonist Mode, dose response. As to conditions: CHO mitoPhotinaGPR120 cells, Fluo-8 No Wash Ca2+ dye, dose response in quadruplicate, 0.0033% fatty acid free BSA.
As to `Cc1nn(-c2ccc(F)cc2F)c(COc2ccc(CCO)cc2)c1C#N` [Example 114, 1-(2,4-difluorophenyl)-5-[[4-(2-hydroxyethyl)phenoxy]methyl]-3-methyl-pyrazole-4-carbonitrile], the EC50 (as a rule, the concentration needed to bring the measured effect to its halfway point) came to 5.55 µM.
On to `Cc1nn(-c2ccc(OC(F)(F)F)cc2)c(COc2ccc(CCO)cc2)c1C#N` [Example 115, 5-[[4-(2-hydroxyethyl)phenoxy]methyl]-3-methyl-1-[4-(trifluoromethoxy)phenyl]pyrazole-4-carbonitrile], for which the concentration for a half-maximal effect (EC50) worked out at 4.62 µM.
To `Cc1nn(-c2ccc(Cl)nn2)c(COc2ccc(CCO)cc2)c1C#N` [Example 116, 1-(6-chloropyridazin-3-yl)-5-[[4-(2-hydroxyethyl)phenoxy]methyl]-3-methyl-pyrazole-4-carbonitrile] belongs 1.63 µM; to `Cc1nn(C2CCCC2)c(COc2ccc(CCO)cc2)c1C#N` [Example 117, 1-cyclopentyl-5-[[4-(2-hydroxyethyl)phenoxy]methyl]-3-methyl-pyrazole-4-carbonitrile], 1.2 µM; to `Cc1nn(C2CCCCC2)c(COc2ccc(CCO)cc2)c1C#N` [Example 118, 1-cyclohexyl-5-[[4-(2-hydroxyethyl)phenoxy]methyl]-3-methyl-pyrazole-4-carbonitrile], 2.24 µM.
The value for `Cc1cc(COc2ccc(CCO)cc2)n(-c2ccccc2)n1` [Example 126, 2-[4-[(5-methyl-2-phenyl-pyrazol-3-yl)methoxy]phenyl]ethanol] was 5.92 µM.
To `N#Cc1cnn(-c2ccccc2)c1COc1ccc(CCO)cc1` [Example 129, 5-[[4-(2-hydroxyethyl)phenoxy]methyl]-1-phenyl-pyrazole-4-carbonitrile] belongs 3.33 µM; to `N#Cc1cnn(-c2ccccc2)c1COc1ccc(CCCO)cc1` [Example 130, 5-[[4-(3-hydroxypropyl)phenoxy]methyl]-1-phenyl-pyrazole-4-carbonitrile], 0.19 µM; to `Cc1nn(-c2ccccc2)c(COc2c(F)cc(CCC(=O)O)cc2F)c1C#N` [Example 133, 3-[4-[(4-cyano-5-methyl-2-phenyl-pyrazol-3-yl)methoxy]-3,5-difluoro-phenyl]propanoic acid], 9.73 µM.
`Cc1nn(-c2ccccc2)c(COc2ccc(CCC3CCNCC3)cc2)c1C#N` [Example 136, 3-methyl-1-phenyl-5-[[4-[2-(4-piperidyl)ethyl]phenoxy]methyl]pyrazole-4-carbonitrile]: the EC50 was 17.7 µM.
On to `Cc1nn(-c2ccccc2)c(COc2ccc(-c3nc(CO)cs3)cc2)c1C#N` [Example 146, 5-[[4-[4-(hydroxymethyl)thiazol-2-yl]phenoxy]methyl]-3-methyl-1-phenyl-pyrazole-4-carbonitrile], for which the EC50 was 3.36 µM.
To `Cc1nn(-c2ccccc2)c(COc2ccc(CO)cc2C(F)(F)F)c1C#N` [Example 147, 5-[[4-(hydroxymethyl)-2-(trifluoromethyl)phenoxy]methyl]-3-methyl-1-phenyl-pyrazole-4-carbonitrile] belongs 1.49 µM; to `Cc1nn(-c2ccccn2)c(COc2ccc(CCCO)cc2)c1C#N` [Example 149, 5-[[4-(3-hydroxypropyl)phenoxy]methyl]-3-methyl-1-(2-pyridyl)pyrazole-4-carbonitrile], 0.15 µM.
The value for `Cc1ccc(-n2nc(C)c(C#N)c2COc2ccc(CCCO)cc2)cc1` [Example 150, 5-[[4-(3-hydroxypropyl)phenoxy]methyl]-3-methyl-1-(p-tolyl)pyrazole-4-carbonitrile] was 0.15 µM; that for `CCc1ccc(-n2nc(C)c(C#N)c2COc2ccc(CCCO)cc2)cc1` [Example 151, 1-(4-ethylphenyl)-5-[[4-(3-hydroxypropyl)phenoxy]methyl]-3-methyl-pyrazole-4-carbonitrile] was 0.24 µM.
The value for `Cc1nn(-c2ccc(Cl)cc2)c(COc2ccc(CCCO)cc2)c1C#N` [Example 152, 1-(4-chlorophenyl)-5-[[4-(3-hydroxypropyl)phenoxy]methyl]-3-methyl-pyrazole-4-carbonitrile] was 0.51 µM.
